We go through 27 compounds from US9334264B2, “NAMPT inhibitors” (AbbVie Inc., priority 2012, dated 2016).

For experiment [1], the target named is NAMPT (human, recombinant, C-terminally His-tagged) (Homo sapiens, UniProt P43490). Kind of experiment: Time-Resolved Fluorescence Resonance Energy Transfer (TR-FRET) Binding Assay of NAMPT. The conditions noted are these: absence of substrates; 6.8 nM NAMPT, 200 nM probe, equilibrated 3 hours. A digest of the protocol: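 Displacement of 200 nM Oregon Green-labelled nicotinamide-competitive probe from 6.8 nM His-tagged NAMPT, detected with 1 nM Tb-anti-His; HEPES pH 7.5, 2% DMSO, 3 h room temperature. Em520/Em495 ratios normalized and fit four-parameter logistic for IC50.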
Chain of NAMPT (human, recombinant, C-terminally His-tagged) (P43490 whole entry): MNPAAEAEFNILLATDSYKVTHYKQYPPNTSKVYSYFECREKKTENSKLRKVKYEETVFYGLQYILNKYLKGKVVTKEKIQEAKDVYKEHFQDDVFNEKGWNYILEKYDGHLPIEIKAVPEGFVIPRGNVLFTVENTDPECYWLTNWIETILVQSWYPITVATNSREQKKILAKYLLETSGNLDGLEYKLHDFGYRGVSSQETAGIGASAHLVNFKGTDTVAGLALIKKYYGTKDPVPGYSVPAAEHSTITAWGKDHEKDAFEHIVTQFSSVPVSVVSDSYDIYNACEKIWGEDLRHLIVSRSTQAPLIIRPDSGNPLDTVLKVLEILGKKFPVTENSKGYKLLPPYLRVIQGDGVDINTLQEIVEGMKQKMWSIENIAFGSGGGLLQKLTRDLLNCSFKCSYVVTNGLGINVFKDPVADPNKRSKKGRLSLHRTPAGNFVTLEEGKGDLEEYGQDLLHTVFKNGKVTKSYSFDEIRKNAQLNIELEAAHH
Background: TR-FRET usually uses a lanthanide donor and a delayed reading to cut background.

In another experiment the target is NAMPT (Homo sapiens, UniProt P43490). Kind of experiment: Time-Resolved Fluorescence Resonance Energy Transfer (TR-FRET) Binding Assay of NAMPT with PRPP. The conditions noted are these: 200 μM PRPP and 2.5 mM ATP; 2 nM NAMPT, 2 nM probe, equilibrated 16 hours. A digest of the protocol:
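Binding was measured by TR-FRET with 2 nM NAMPT, 2 nM probe and 1 nM Tb-anti-His antibody in the presence of 200 μM PRPP and 2.5 mM ATP, with 2% DMSO. Equilibration lasted 16 h before reading, allowing possible enzymatic modification of compounds.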

Chain of NAMPT (P43490 whole entry): as above

On to `COCCC(=O)N(CCC(=O)N1CCCC1)c1ncc(C(=O)NCCCn2ccnc2)s1` [Example 195, N-[3-(1H-imidazol-1-yl)propyl]-2-{(3-methoxypropanoyl)[3-oxo-3-(pyrrolidin-1-yl)propyl]amino}-1,3-thiazole-5-carboxamide], for which the concentration for half-maximal inhibition (IC50) – broadly, the concentration that inhibits the measured activity by half – was more than 10 µM in experiment [1] and 0.000338 µM at NAMPT.

Take `CC(C)CCN(C(=O)CCc1ccccc1)c1ncc(C(=O)NCCCn2ccnc2)s1` [Example 137, N-[3-(1H-imidazol-1-yl)propyl]-2-[(3-methylbutyl)(3-phenylpropanoyl)amino]-1,3-thiazole-5-carboxamide]: the IC50 turned out to be 0.0402 µM in experiment [1] and 0.000236 µM at NAMPT.

On to `CN(C)C(=O)CCNC(=O)N(Cc1ccc(C#N)cc1)c1ncc(C(=O)NCCCn2ccnc2)s1` [Example 142, 2-[(4-cyanobenzyl){[3-(dimethylamino)-3-oxopropyl]carbamoyl}amino]-N-[3-(1H-imidazol-1-yl)propyl]-1,3-thiazole-5-carboxamide], for which the concentration for half-maximal inhibition (IC50) is 6.04 µM in experiment [1] and 0.0169 µM at NAMPT.

As for `COC(C)CNC(=O)N(Cc1ccc(C#N)cc1)c1ncc(C(=O)NCCCn2ccnc2)s1` (stereo not drawn) [Example 124, 2-{(4-cyanobenzyl)[(2-methoxypropyl)carbamoyl]amino}-N-[3-(1H-imidazol-1-yl)propyl]-1,3-thiazole-5-carboxamide], the half-maximal inhibitory concentration (IC50) in experiment [1] came to 3.52 µM; on NAMPT it was 0.000624 µM.

For the compound `O=C(NCCCn1ccnc1)c1cnc(N(Cc2ccc(F)cc2)C(=O)CN2CCN(CCO)CC2)s1` [Example 42, 2-[(4-fluorobenzyl){[4-(2-hydroxyethyl)piperazin-1-yl]acetyl}amino]-N-[3-(1H-imidazol-1-yl)propyl]-1,3-thiazole-5-carboxamide], the results for the IC50 (in experiment [1]; on NAMPT) were more than 10 µM and 0.0246 µM, respectively.

In the case of `Cc1nccn1CCCNC(=O)c1cnc(N(Cc2ccc(F)cc2)C(=O)CC(C)C)s1` [Example 53, 2-[(4-fluorobenzyl)(3-methylbutanoyl)amino]-N-[3-(2-methyl-1H-imidazol-1-yl)propyl]-1,3-thiazole-5-carboxamide], the IC50 in experiment [1] is 2.53 µM; at NAMPT it was 0.32 µM.

Consider `CCN(CCOC)C(=O)N(Cc1ccc(F)cc1)c1ncc(C(=O)NCCCn2ccnc2)s1` [Example 71, 2-{[ethyl(2-methoxyethyl)carbamoyl](4-fluorobenzyl)amino}-N-[3-(1H-imidazol-1-yl)propyl]-1,3-thiazole-5-carboxamide], for which the IC50 in experiment [1] was 0.533 µM; at NAMPT, 0.0007 µM.

On to `COCCC(=O)N(CCc1cccc(OC)c1)c1ncc(C(=O)NCCCn2ccnc2)s1` [Example 107, N-[3-(1H-imidazol-1-yl)propyl]-2-{[2-(3-methoxyphenyl)ethyl](3-methoxypropanoyl)amino}-1,3-thiazole-5-carboxamide acetate (1:1)], for which the IC50 in experiment [1] was 0.814 µM; on NAMPT, 0.00224 µM.

`CC(C)NC(=O)N(Cc1ccc(F)cc1)c1ncc(C(=O)NCCCn2ccnc2)s1` [Example 46, 2-[(4-fluorobenzyl)(propan-2-ylcarbamoyl)amino]-N-[3-(1H-imidazol-1-yl)propyl]-1,3-thiazole-5-carboxamide]: the IC50 in experiment [1] came out at 9.52 µM; at NAMPT it was 0.0022 µM.

As for `O=C(NCCCn1ccnc1)c1cnc(N(CCc2ccc(Cl)cn2)C(=O)C2CCOC2)s1` (stereo not drawn) [Example 208, 2-{[2-(5-chloropyridin-2-yl)ethyl](tetrahydrofuran-3-ylcarbonyl)amino}-N-[3-(1H-imidazol-1-yl)propyl]-1,3-thiazole-5-carboxamide], the 50% inhibitory concentration (IC50) was 2.89 µM in experiment [1] and 0.00025 µM at NAMPT.

Regarding `CN1CCN(CC(=O)N(Cc2ccc(F)cc2)c2ncc(C(=O)NCCCn3ccnc3)s2)CC1` [Example 30, 2-{(4-fluorobenzyl)[(4-methylpiperazin-1-yl)acetyl]amino}-N-[3-(1H-imidazol-1-yl)propyl]-1,3-thiazole-5-carboxamide], the 50% inhibitory concentration (IC50) is more than 10 µM in experiment [1] and 0.00229 µM on NAMPT.

`COCCC(=O)N(Cc1ccccn1)c1ncc(C(=O)NCCCn2ccnc2)s1` [Example 121, N-[3-(1H-imidazol-1-yl)propyl]-2-[(3-methoxypropanoyl)(pyridin-2-ylmethyl)amino]-1,3-thiazole-5-carboxamide]: the results for the concentration for half-maximal inhibition (IC50) (in experiment [1]; at NAMPT) were more than 10 µM and 0.00925 µM, respectively.

Turning to `CC1CN(C(=O)N(Cc2ccc(F)cc2)c2ncc(C(=O)NCCCn3ccnc3)s2)CC(C)O1` (stereo not drawn) [Example 70, N-(4-fluorobenzyl)-N-(5-{[3-(1H-imidazol-1-yl)propyl]carbamoyl}-1,3-thiazol-2-yl)-2,6-dimethylmorpholine-4-carboxamide], the half-inhibitory concentration (IC50) in experiment [1] is more than 10 µM; at NAMPT, 0.00508 µM.

Consider `CCOC(=O)C(C)(C)CNC(=O)N(Cc1ccc(C#N)cc1)c1ncc(C(=O)NCCCn2ccnc2)s1` [Example 163, ethyl 3-{[(4-cyanobenzyl)(5-{[3-(1H-imidazol-1-yl)propyl]carbamoyl}-1,3-thiazol-2-yl)carbamoyl]amino}-2,2-dimethylpropanoate], for which the IC50 stood at 6.8 µM in experiment [1] and 0.171 µM at NAMPT.

Consider `O=C(NCCCn1ccnc1)c1cnc(N(Cc2ccc(F)cc2)C(=O)NCC2OCCO2)s1` [Example 86, 2-{[(1,3-dioxolan-2-ylmethyl)carbamoyl](4-fluorobenzyl)amino}-N-[3-(1H-imidazol-1-yl)propyl]-1,3-thiazole-5-carboxamide], for which the IC50 in experiment [1] is more than 10 µM; at NAMPT, 0.00266 µM.

Turning to `CCCOCCNC(=O)N(Cc1ccc(F)cc1)c1ncc(C(=O)NCCCn2ccnc2)s1` [Example 78, 2-{(4-fluorobenzyl)[(2-propoxyethyl)carbamoyl]amino}-N-[3-(1H-imidazol-1-yl)propyl]-1,3-thiazole-5-carboxamide], the IC50 in experiment [1] amounted to 2.9 µM; at NAMPT, 0.000969 µM.

As to `N#Cc1ccc(CN(C(=O)CC2CCOC2)c2ncc(C(=O)NCCCn3ccnc3)s2)cc1` (stereo not drawn) [Example 61, 2-[(4-cyanobenzyl)(tetrahydrofuran-3-ylacetyl)amino]-N-[3-(1H-imidazol-1-yl)propyl]-1,3-thiazole-5-carboxamide], the values for the half-maximal inhibitory concentration (IC50) (in experiment [1]; at NAMPT) were 1.9 µM and 0.00178 µM, respectively.

In the case of `CC(C)CCN(C(=O)Cc1ccc(F)cc1)c1ncc(C(=O)NCCCn2ccnc2)s1` [Example 139, 2-{[(4-fluorophenyl)acetyl](3-methylbutyl)amino}-N-[3-(1H-imidazol-1-yl)propyl]-1,3-thiazole-5-carboxamide], the IC50 was found to be 0.0561 µM in experiment [1] and 0.000251 µM on NAMPT.

On to `CC(O)CNC(=O)N(Cc1ccc(C#N)cc1)c1ncc(C(=O)NCCCn2ccnc2)s1` (stereo not drawn) [Example 128, 2-{(4-cyanobenzyl)[(2-hydroxypropyl)carbamoyl]amino}-N-[3-(1H-imidazol-1-yl)propyl]-1,3-thiazole-5-carboxamide], for which the IC50 in experiment [1] was more than 10 µM; at NAMPT, 0.000727 µM.

Consider `CCN(CC)CCCN(C(=O)CCOC)c1ncc(C(=O)NCCCn2ccnc2)s1` [Example 190, 2-{[3-(diethylamino)propyl](3-methoxypropanoyl)amino}-N-[3-(1H-imidazol-1-yl)propyl]-1,3-thiazole-5-carboxamide], for which the results for the half-inhibitory concentration (IC50) (in experiment [1]; at NAMPT) were 2.61 µM and 0.000606 µM, respectively.

With `CC(C)CCNC(=O)N(Cc1ccc(F)cc1)c1ncc(C(=O)NCCCn2ccnc2)s1` [Example 63, 2-{(4-fluorobenzyl)[(3-methylbutyl)carbamoyl]amino}-N-[3-(1H-imidazol-1-yl)propyl]-1,3-thiazole-5-carboxamide], the half-maximal inhibitory concentration (IC50) in experiment [1] was 2.25 µM; on NAMPT, 0.000693 µM.

With `CC1(C)CN(C(=O)N(Cc2ccc(F)cc2)c2ncc(C(=O)NCCCn3ccnc3)s2)CCO1` [Example 72, N-(4-fluorobenzyl)-N-(5-{[3-(1H-imidazol-1-yl)propyl]carbamoyl}-1,3-thiazol-2-yl)-2,2-dimethylmorpholine-4-carboxamide], the IC50 in experiment [1] was more than 10 µM; at NAMPT, 0.00399 µM.

For `COCCC(=O)N(CCCN1CCCC1)c1ncc(C(=O)NCCCn2ccnc2)s1` [Example 192, N-[3-(1H-imidazol-1-yl)propyl]-2-{(3-methoxypropanoyl)[3-(pyrrolidin-1-yl)propyl]amino}-1,3-thiazole-5-carboxamide], the IC50 in experiment [1] is more than 10 µM; at NAMPT it was 0.000262 µM.

`CCOCCN1CCN(CC(=O)N(Cc2ccc(F)cc2)c2ncc(C(=O)NCCCn3ccnc3)s2)CC1` [Example 35, 2-[{[4-(2-ethoxyethyl)piperazin-1-yl]acetyl}(4-fluorobenzyl)amino]-N-[3-(1H-imidazol-1-yl)propyl]-1,3-thiazole-5-carboxamide]: the results for the half-inhibitory concentration (IC50) (in experiment [1]; on NAMPT) were more than 10 µM and 0.00318 µM, respectively.

For `CC(C)N1CCN(CCN(Cc2ccc(F)cc2)c2ncc(C(=O)NCCCn3ccnc3)s2)CC1` [Example 10, 2-[(4-fluorobenzyl){2-[4-(propan-2-yl)piperazin-1-yl]ethyl}amino]-N-[3-(1H-imidazol-1-yl)propyl]-1,3-thiazole-5-carboxamide], the IC50 turned out to be 0.281 µM in experiment [1] and 0.0196 µM on NAMPT.

Consider `COCCC(=O)N(CC1CCCO1)c1ncc(C(=O)NCCCn2ccnc2)s1` (stereo not drawn) [Example 178, N-[3-(1H-imidazol-1-yl)propyl]-2-[(3-methoxypropanoyl)(tetrahydrofuran-2-ylmethyl)amino]-1,3-thiazole-5-carboxamide], for which the IC50 is 6.97 µM in experiment [1] and 0.000813 µM at NAMPT.

Consider `O=C(NCCCn1ccnc1)c1cnc(N(Cc2ccc(F)cc2)C(=O)NCC2COCCO2)s1` (stereo not drawn) [Example 88, 2-{[(1,4-dioxan-2-ylmethyl)carbamoyl](4-fluorobenzyl)amino}-N-[3-(1H-imidazol-1-yl)propyl]-1,3-thiazole-5-carboxamide], for which the half-inhibitory concentration (IC50) in experiment [1] was more than 10 µM; at NAMPT it was 0.000602 µM.
